Assays:
[1] = molecular target: Calcium/calmodulin-dependent protein kinase type 1B (Homo sapiens) (UniProt Q6P2M8); assay: Inhibition of recombinant full length human CaMKIbeta assessed as residual activity at 10 uM using KKLRRTLSFAEP as substrate incubated for 40 mins in presence of [gamma-33ATP] by scintillation counting based radiometry assay relative to control
[2] = molecular target: G protein-coupled receptor kinase 5 (Homo sapiens) (UniProt P34947); assay: Inhibition of recombinant full length human GRK5 assessed as residual activity at 10 uM using casein as substrate at 40 mins in presence of [gamma-33ATP] by scintillation counting based radiometry assay relative to control
G protein-coupled receptor kinase 5 (Homo sapiens), sequence (P34947 whole entry, looked up): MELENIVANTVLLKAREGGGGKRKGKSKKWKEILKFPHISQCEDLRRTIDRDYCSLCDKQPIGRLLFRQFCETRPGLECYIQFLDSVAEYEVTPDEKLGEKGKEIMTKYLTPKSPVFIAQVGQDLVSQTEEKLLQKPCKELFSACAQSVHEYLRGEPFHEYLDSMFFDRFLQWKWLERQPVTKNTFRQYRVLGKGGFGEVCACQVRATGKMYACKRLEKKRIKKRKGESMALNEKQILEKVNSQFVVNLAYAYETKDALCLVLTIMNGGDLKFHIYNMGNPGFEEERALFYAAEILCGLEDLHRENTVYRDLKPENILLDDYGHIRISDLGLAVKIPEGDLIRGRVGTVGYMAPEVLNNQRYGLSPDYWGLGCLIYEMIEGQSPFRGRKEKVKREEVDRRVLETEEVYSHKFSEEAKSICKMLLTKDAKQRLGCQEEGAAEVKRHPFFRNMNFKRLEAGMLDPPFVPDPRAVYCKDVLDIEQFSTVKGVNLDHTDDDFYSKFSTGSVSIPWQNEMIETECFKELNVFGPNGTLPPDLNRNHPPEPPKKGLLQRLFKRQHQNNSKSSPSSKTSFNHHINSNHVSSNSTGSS

[3] = molecular target: CDK12/Cyclin K (Homo sapiens) (UniProt O75909+Q9NYV4); assay: Inhibition of recombinant full length human CDK12/cyclinK assessed as residual activity at 10 uM using RSRSRSRSRSRSR as substrate incubated for 40 mins in presence of [gamma-33ATP] by scintillation counting based radiometry assay relative to control; assay type: protein-complex assay
[4] = molecular target: BMP-2-inducible protein kinase (Homo sapiens) (UniProt Q9NSY1); assay: Inhibition of recombinant human BIKe assessed as residual activity at 10 uM using peptide as substrate incubated for 120 mins in presence of [gamma-33ATP] by scintillation counting based radiometry assay relative to control
[5] = molecular target: Calcium/calmodulin-dependent protein kinase type 1 (Homo sapiens) (UniProt Q14012); assay: Inhibition of recombinant human CaMKIalpha (2 to end residues) assessed as residual activity at 10 uM using […] incubated for 40 mins in presence of [gamma-33ATP] by scintillation counting based radiometry assay relative to control
[6] = molecular target: Calcium/calmodulin-dependent protein kinase kinase 1 (Homo sapiens) (UniProt Q8N5S9); assay: Inhibition of recombinant full length human CaMKK1 assessed as residual activity at 10 uM using […] incubated for 40 mins in presence of [gamma-33ATP] by scintillation counting based radiometry assay relative to control
[7] = molecular target: Activin receptor type-1-like (Homo sapiens) (UniProt P37023); assay: Inhibition of recombinant human ALK1 (142 to end residues) assessed as residual activity at 10 uM using casein as substrate incubated for 40 mins in presence of [gamma-33ATP] by scintillation counting based radiometry assay relative to control
[8] = organism: Homo sapiens; assay: Inhibition of recombinant human MER H628Q/R794A mutant (557 to 882 residues) assessed as residual activity at 10 uM using KKLNRTLSFAEPG as substrate incubated for 40 mins in presence of [gamma-33ATP by scintillation counting based radiometry assay relative to control
[9] = molecular target: cGMP-dependent protein kinase 2 (Homo sapiens) (UniProt Q13237); assay: Inhibition of recombinant full-length human PRKG2 assessed as residual activity at 10 uM using KKLRRTLSFAEPG as substrate incubated for 40 mins in presence of [gamma33P]ATP by scintillation counting based radiometry assay relative to control
cGMP-dependent protein kinase 2 (Homo sapiens), sequence (Q13237 whole entry): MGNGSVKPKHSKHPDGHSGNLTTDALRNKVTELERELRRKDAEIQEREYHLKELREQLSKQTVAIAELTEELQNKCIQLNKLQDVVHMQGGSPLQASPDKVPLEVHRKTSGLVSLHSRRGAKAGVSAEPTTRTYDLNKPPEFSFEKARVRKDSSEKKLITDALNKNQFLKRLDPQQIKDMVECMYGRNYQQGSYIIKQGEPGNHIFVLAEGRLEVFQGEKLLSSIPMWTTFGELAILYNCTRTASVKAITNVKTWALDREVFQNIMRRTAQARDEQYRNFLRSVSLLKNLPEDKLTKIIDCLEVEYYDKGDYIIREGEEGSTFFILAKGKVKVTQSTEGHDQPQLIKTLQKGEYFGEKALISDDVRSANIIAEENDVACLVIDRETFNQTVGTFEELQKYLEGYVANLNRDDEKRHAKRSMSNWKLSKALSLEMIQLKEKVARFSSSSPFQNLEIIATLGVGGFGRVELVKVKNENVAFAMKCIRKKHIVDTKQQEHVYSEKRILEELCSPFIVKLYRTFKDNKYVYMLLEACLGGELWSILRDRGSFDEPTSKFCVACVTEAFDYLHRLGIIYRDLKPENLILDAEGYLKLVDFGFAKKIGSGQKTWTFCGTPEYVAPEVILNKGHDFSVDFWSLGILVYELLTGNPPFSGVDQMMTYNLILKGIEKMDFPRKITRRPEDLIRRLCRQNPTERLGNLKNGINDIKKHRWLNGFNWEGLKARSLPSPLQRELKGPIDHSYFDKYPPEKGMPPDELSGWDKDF

[10] = molecular target: Ribosomal protein S6 kinase alpha-3 (Homo sapiens) (UniProt P51812); assay: Inhibition of recombinant human Rsk2 (2 to end residues) assessed as residual activity at 10 uM using KKKNRTLSVA as substrate incubated for 40 mins in presence of [gamma33P]ATP by scintillation counting based radiometry assay relative to control
[11] = tested on: Angiopoietin-1 receptor (Homo sapiens), Q02763 [Q939H,Q940H]; assay: Inhibition of recombinant human TIE2 Q939H/Q940H mutant (771 to end residues) assessed as residual activity at 10 uM using EFPIYDFLPAKKK as substrate incubated for 40 mins in presence of [gamma33P]ATP by scintillation counting based radiometry assay relative to control
[12] = molecular target: Serine/threonine-protein kinase PLK2 (Homo sapiens) (UniProt Q9NYY3); assay: Inhibition of recombinant human SNK (65 to 409 residues) assessed as residual activity at 10 uM using casein as substrate incubated for 40 mins in presence of [gamma33P]ATP by scintillation counting based radiometry assay relative to control
Serine/threonine-protein kinase PLK2 (Homo sapiens), sequence (Q9NYY3 whole entry, looked up, the tested form may be a part): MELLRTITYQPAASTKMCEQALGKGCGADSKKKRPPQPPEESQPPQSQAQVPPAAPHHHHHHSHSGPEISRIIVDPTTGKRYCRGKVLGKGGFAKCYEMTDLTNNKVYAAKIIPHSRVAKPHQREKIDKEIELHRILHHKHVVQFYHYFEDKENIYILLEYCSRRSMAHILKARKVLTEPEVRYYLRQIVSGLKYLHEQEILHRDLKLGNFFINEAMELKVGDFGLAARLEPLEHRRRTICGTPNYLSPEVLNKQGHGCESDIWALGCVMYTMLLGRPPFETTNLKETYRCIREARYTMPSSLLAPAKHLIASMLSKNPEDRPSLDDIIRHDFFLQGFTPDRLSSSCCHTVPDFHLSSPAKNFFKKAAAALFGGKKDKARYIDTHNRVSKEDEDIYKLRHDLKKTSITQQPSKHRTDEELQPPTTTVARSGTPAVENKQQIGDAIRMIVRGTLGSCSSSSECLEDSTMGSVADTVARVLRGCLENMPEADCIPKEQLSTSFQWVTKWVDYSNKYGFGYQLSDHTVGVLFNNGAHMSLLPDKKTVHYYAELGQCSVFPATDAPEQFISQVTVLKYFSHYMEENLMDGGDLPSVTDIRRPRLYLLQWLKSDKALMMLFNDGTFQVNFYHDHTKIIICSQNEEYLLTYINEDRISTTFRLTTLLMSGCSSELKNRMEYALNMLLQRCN

[13] = molecular target: Serine/threonine-protein kinase N2 (Homo sapiens) (UniProt Q16513); assay: Inhibition of recombinant human PRK2 (501 to end residues) assessed as residual activity at 10 uM using AKRRRLSSLRA as substrate incubated for 40 mins in presence of [gamma33P]ATP by scintillation counting based radiometry assay relative to control
[14] = molecular target: Mitogen-activated protein kinase kinase kinase kinase 4 (Homo sapiens) (UniProt O95819); assay: Inhibition of recombinant human MAP4K4 (1 to 328 residues) assessed as residual activity at 10 uM using RLGRDKYKTLRQI as substrate incubated for 40 mins in presence of [gamma-33ATP by scintillation counting based radiometry assay relative to control
[15] = tested on: RAC-beta serine/threonine-protein kinase (Homo sapiens), P31751 [S474D]; assay: Inhibition of recombinant human PKBbeta S474D mutant (120 to end residues) assessed as residual activity at 10 uM using GRPRTSSFAEGKK as substrate incubated for 40 mins in presence of [gamma33P]ATP by scintillation counting based radiometry assay relative to control
[16] = molecular target: Serine/threonine-protein kinase MRCK beta (Homo sapiens) (UniProt Q9Y5S2); assay: Inhibition of recombinant human MRCKbeta (1 to 473 residues) assessed as residual activity at 10 uM using KKRNRTLTV as substrate incubated for 40 mins in presence of [gamma-33ATP by scintillation counting based radiometry assay relative to control
[17] = molecular target: Serine/threonine-protein kinase ICK (Homo sapiens) (UniProt Q9UPZ9); assay: Inhibition of human ICK (1 to 312 residues) assessed as residual activity at 10 uM using RRRFRPASPLRGP as substrate after 40 mins by [gamma-33ATP] radiometric assay relative to control
Serine/threonine-protein kinase ICK (Homo sapiens), sequence (Q9UPZ9 whole entry, the tested form may be a part): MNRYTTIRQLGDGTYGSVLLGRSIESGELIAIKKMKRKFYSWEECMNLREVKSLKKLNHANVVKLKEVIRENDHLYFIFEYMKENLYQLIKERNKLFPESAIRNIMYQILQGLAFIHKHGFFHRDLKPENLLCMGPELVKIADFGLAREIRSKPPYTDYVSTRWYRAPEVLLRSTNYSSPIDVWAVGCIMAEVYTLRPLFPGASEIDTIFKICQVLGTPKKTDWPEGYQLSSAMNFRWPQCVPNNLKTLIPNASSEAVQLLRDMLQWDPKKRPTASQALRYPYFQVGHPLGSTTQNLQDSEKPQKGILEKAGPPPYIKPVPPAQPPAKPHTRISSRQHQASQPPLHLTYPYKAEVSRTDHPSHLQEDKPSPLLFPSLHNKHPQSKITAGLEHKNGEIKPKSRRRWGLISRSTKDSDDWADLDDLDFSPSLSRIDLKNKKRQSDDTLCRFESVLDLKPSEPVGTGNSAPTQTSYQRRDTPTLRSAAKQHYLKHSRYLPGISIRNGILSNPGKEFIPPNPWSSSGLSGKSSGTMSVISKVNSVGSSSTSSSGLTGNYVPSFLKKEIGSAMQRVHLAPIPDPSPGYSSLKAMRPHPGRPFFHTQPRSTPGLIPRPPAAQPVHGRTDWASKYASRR

[18] = molecular target: Insulin receptor (Homo sapiens) (UniProt P06213); assay: Inhibition of human IR (1005 to 1310 residues) assessed as residual activity at 10 uM using KKSRGDYMTMQIG as substrate after 40 mins by [gamma-33ATP] radiometric assay relative to control
[19] = molecular target: 5'-AMP-activated protein kinase catalytic subunit alpha-2 (Homo sapiens) (UniProt P54646); assay: Inhibition of recombinant full length human AMPKalpha2 assessed as residual activity at 10 uM using AMARAASAAALAR as substrate incubated for 40 mins in presence of [gamma-33ATP] by scintillation counting based radiometry assay relative to control
[20] = molecular target: Serine/threonine-protein kinase Nek9 (Homo sapiens) (UniProt Q8TD19); assay: Inhibition of recombinant human NEK9 (1 to 324 residues) assessed as residual activity at 10 uM using myelin basic protein as substrate measured after 40 mins in presence of [gamma33P]ATP by scintillation counting based radiometry assay relative to control
Serine/threonine-protein kinase Nek9 (Homo sapiens), sequence (Q8TD19 whole entry, the tested form may be a part): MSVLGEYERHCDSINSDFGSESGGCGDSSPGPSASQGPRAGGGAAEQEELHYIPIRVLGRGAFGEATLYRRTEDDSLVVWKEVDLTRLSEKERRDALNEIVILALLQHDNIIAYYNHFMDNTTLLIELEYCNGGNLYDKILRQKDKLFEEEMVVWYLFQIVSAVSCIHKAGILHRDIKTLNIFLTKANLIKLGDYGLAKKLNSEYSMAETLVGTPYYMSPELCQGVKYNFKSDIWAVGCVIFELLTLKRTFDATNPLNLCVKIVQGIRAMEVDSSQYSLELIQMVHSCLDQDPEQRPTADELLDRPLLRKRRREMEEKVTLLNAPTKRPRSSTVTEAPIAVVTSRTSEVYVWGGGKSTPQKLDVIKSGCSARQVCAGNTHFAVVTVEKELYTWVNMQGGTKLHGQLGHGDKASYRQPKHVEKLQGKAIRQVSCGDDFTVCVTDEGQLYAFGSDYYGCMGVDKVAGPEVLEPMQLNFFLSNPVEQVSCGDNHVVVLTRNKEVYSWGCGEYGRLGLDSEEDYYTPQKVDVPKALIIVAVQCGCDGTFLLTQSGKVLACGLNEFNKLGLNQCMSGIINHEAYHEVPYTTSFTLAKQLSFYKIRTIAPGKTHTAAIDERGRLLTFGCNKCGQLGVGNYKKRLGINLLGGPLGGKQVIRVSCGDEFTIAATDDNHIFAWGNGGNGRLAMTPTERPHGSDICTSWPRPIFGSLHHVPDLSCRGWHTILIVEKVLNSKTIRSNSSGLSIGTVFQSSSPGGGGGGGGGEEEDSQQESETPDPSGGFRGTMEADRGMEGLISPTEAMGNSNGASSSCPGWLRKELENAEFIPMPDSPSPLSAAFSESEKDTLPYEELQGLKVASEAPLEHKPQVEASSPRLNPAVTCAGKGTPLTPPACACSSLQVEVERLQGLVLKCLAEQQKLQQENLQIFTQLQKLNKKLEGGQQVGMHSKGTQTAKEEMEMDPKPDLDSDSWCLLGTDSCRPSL

[21] = molecular target: CDC7/Cyclin B1 (Homo sapiens) (UniProt P14635+O00311); assay: Inhibition of recombinant full length human CD7/CyclinB1 assessed as residual activity at 10 uM using Histone H1 as substrate incubated for 40 mins in presence of [gamma-33ATP] by scintillation counting based radiometry assay relative to control; assay type: protein-complex assay
CDC7/Cyclin B1 (Homo sapiens), sequence (O00311 whole entry, looked up): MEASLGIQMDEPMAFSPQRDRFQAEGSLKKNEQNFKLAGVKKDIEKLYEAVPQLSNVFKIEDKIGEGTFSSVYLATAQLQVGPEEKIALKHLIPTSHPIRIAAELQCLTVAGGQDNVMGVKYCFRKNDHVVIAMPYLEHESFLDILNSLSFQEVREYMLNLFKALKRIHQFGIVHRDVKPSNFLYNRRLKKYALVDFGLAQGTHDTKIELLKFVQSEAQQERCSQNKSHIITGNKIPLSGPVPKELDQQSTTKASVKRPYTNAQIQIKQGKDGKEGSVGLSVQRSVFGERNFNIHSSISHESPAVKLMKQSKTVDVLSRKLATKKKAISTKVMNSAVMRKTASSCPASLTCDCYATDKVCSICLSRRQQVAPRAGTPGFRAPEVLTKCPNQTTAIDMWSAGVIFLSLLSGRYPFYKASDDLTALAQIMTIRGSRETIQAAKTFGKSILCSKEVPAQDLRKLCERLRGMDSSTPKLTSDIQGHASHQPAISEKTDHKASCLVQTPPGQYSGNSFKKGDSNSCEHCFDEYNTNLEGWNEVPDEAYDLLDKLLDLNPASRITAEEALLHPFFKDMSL
CDC7/Cyclin B1 (Homo sapiens), sequence (P14635 whole entry, looked up): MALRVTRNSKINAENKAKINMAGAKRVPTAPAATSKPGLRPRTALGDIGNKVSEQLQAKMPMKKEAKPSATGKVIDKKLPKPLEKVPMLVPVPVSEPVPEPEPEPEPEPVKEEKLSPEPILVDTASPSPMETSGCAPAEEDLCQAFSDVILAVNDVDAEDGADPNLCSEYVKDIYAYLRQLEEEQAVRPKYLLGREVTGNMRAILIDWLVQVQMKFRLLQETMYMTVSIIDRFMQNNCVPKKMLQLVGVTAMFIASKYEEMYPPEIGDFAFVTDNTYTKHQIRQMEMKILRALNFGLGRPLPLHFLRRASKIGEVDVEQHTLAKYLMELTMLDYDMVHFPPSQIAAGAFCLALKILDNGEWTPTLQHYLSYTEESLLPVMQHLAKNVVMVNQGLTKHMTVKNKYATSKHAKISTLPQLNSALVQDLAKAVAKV

Calcium/calmodulin-dependent protein kinase type 1B (Homo sapiens), sequence (Q6P2M8 whole entry): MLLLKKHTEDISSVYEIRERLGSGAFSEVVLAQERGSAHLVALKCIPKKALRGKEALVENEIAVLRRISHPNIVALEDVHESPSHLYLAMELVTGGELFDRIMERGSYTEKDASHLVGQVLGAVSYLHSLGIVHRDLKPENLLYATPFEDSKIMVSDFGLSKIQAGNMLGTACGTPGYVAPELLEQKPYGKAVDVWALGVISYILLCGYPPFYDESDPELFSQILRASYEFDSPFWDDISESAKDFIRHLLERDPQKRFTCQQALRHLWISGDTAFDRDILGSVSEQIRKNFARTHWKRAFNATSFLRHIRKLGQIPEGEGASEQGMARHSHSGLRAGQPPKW

Which results are given for `C[C@@H](c1ccccc1)n1nnc2cnc3ccc(-c4cnc5[nH]ccc5c4)cc3c21`?
Activity [1]: 67%; Activity [2]: 91%; Activity [3]: 83%; Activity [4]: 54%; Activity [5]: 28%; Activity [6]: 67%; Activity [7]: 78%; Activity [8]: 56%; Activity [9]: 52%; Activity [10]: 53%; Activity [11]: 50%; Activity [12]: 90%; Activity [13]: 89%; Activity [14]: 34%; Activity [15]: 61%; Activity [16]: 105%; Activity [17]: 44%; Activity [18]: 64%; Activity [19]: 35%; Activity [20]: 97%; Activity [21]: 63%
